Tests used:
[1] = molecular target: T1, EGFR (T790M/L858R) (Homo sapiens, UniProt P00533, L858R/T790M); assay: EGFR biochemical enzyme assay (CisBio HTRF KinEASE TK); conditions: 30 μM ATP in substrate mix, 50 mins incubation
T1 construct: with amino acids 696-end containing the T790M and L858R mutations; GST (N); purchased Millipore
Description: (§1) The inhibitory activity of a compound against EGFR (T790M/L858R) were determined with CisBio HTRF (homogenous time-resolved fluorescence) KinEASE TK (#62TKOPEC). The enzyme reaction contained recombinant N-terminal GST-tagged human EGFR (T790M/L858R), which phosphorylates the HTRF tyrosine kinase biotinylated substrate.
(§2) The sequence of the substrate is proprietary to CisBio. Test compounds were serially diluted in 100% (v/v) DMSO before being acoustically dispensed from an Echo 555 (Labcyte) into black Corning 1536-well assay plates. Kinase activity assays were performed in a total reaction volume of 3 μL per well. A 1.5 μL enzyme reaction consisted of 1.6 nM EGFR ([…], L858R), 1 mM DTT, and 10 mM MgCl2. A 1.5 μL substrate mix consisted of 1 μM TK substrate, 30 μM ATP, 1 mM DTT, and 10 mM MgCl2. Following a 50 mins incubation, 3 μL of stop mix was added, which consisted of 250 nM Strep-XL665 and TK Ab-Cryptate diluted in kit detection buffer. The plates were incubated for 1 h before being read on Pherastar using standard HTRF settings. N-terminal GST-tagged recombinant human EGF receptor, with amino acids 696-end containing the T790M and L858R mutations, was obtained from Millipore.

[2] = molecular target: T2, EGFR Del-19 (Homo sapiens, UniProt P00533); assay: EGFR biochemical enzyme assay, Del-19
T2 construct: as for the T790M/L858R enzyme of the same protocol
Description: [The source words this procedure for another variant and reports this variant under the same test.] as §1, §2

[3] = molecular target: EGFR Wt (Homo sapiens, UniProt P00533); assay: EGFR biochemical enzyme assay, Wt
Description: [The source words this procedure for another variant and reports this variant under the same test.] as §1, §2

[4] = molecular target: IGF1R (Homo sapiens, UniProt P08069); assay: Biochemical enzyme assay, IGF1R
[5] = molecular target: INSR (Homo sapiens, UniProt P06213); assay: Biochemical enzyme assay, INSR
[6] = tested on: H1975 (L858R/T790M); assay: EGFR cell proliferation assay (CellTiter-Glo), H1975; type: cell-based; conditions: Homo sapiens, NCI-H1975, 3-5 days of compound treatment
Description: (§3) Cell Lines: A431 (WT), H1975 (L858R/T790M), PC9 (E746-A750 deletion): A431 cells were grown in DMEM (Invitrogen, Carlsbad, CA) supplemented with 10% FBS (HyClone, South Logan, UT) and 1% Penicillin-Streptomycin (P/S, Lonza, Walkersville, MD). H1975 cells were grown in RPMI 1640 (Invitrogen) supplemented with 10% FBS and 1% P/S. […] PC-9 cells were obtained from Japan. All cells were maintained and propagated as monolayer cultures at 37° C. in a humidified 5% CO2 incubator. All cells were cultured according to recommendations.
(§4) Cell proliferation was measured using the CellTiter-Glo® Luminescent Cell Viability Assay. The assay involved the addition of a single reagent (CellTiter-Glo® Reagent) directly to cells cultured in serum-supplemented medium. The assay used a one-step addition to induce cell lysis and generate a luminescent signal proportional to the amount of ATP present, which is directly proportional to the number of metabolically active cells present in culture.
(§5) Each compound evaluated was prepared as a DMSO stock solution (10 mM). Compounds were tested in duplicate on each plate, with an 11-point serial dilution curve (1:3 dilution). Compound treatment (50 μL) was added from the compound dilution plate to the cell plate. The highest compound concentration was 1 or 10 μM (final), with a 0.3% final DMSO (#D-5879, Sigma, St Louis, MO) concentration. Plates were then incubated at 37° C., 5% CO2. After 3-5 days of compound treatment, CellTiter-Glo® Reagent (#G7573, Promega, Madison, WI) was prepared in one of two ways. If thawing a frozen aliquot of CellTiter-Glo® Reagent, the aliquot was thawed and equilibrated to RT prior to use while keeping it protected from light. Alternatively, new bottles of CellTiter-Glo® Buffer and CellTiter-Glo® Substrate were thawed and equilibrated to RT prior to use. CellTiter-Glo® Buffer (100 mL) was transferred into the amber bottle containing CellTiter-Glo® Substrate to reconstitute the lyophilized enzyme/substrate mixture, forming the CellTiter-Glo® Reagent. The reconstituted reagent was mixed by gently inverting the contents to obtain a homogeneous solution, and went into solution easily in less than 1 min. Any unused reconstituted CellTiter-Glo® Reagent was immediately aliquoted and frozen at −20° C., and protected from light. Cell plates were equilibrated at RT for approximately 30 mins. An equi-volume amount of CellTiter-Glo® Reagent (100 μL) was added to each well. Plates were mixed for 2 mins on an orbital shaker to induce cell lysis, and then were allowed to incubate at RT for 10 mins to stabilize the luminescent signal. Luminescence was recorded using the PerkinElmer EnVision Excite Multilabel Reader used for endpoint reading for luminescence detection (Waltham, MA). Data was analyzed using a four-parameter fit in Microsoft Excel.

[7] = tested on: PC9 (E746-A750 deletion); assay: EGFR cell proliferation assay (CellTiter-Glo), PC9; type: cell-based; conditions: 3-5 days of compound treatment
Description: as §3, §4, §5

[8] = tested on: A431 (WT); assay: EGFR cell proliferation assay (CellTiter-Glo), A431; type: cell-based; conditions: Homo sapiens, A-431, 3-5 days of compound treatment
Description: as §3, §4, §5

[9] = molecular target: EGFR L858R (Homo sapiens, UniProt P00533, L858R); assay: EGFR biochemical enzyme assay, L858R
Description: [The source words this procedure for another variant and reports this variant under the same test.] as §1, §2

[10] = tested on: hepatocytes; assay: Metabolite identification in hepatocytes, human; type: in vitro ADME; conditions: 10 μM, 240 min, formation of AZ5104 via de-alkylation on the indole ring
Description: Suspended hepatocytes in enough incubation medium to yield ˜1.5×10^6 cells/mL. Pipetted 199 μL of viable hepatocytes or the boiled hepatocytes into each wells of a 96-well non-coated plate. Placed the plate in the incubator on an orbital shaker to allow the hepatocytes to warm for 10 minutes. Pipetted 1 μL of the 2 mM test compound(s) into respective wells of the 96-well non-coated plate to start the reaction with final concentration of 10 μM. Returned the plate to the incubator and placed on an orbital shaker. Incubated at 37° C., 5% CO2 and 90-95% relative humidity with shaking at 500 rpm on the shaker for 240 min. After incubation, transferred media from each well to a tube containing 400 μL cold methanol, washed the well with 200 μL cold methanol and then transferred the media to the corresponding tube. Centrifuged tubes for 10 minutes at 16,000 g. Aliquots of 200 μL of the supernatants were mixed with 200 μL of pure water and used for LC-MS/MS analysis. UHPLC-MS/MS analysis was conducted using a Dionex UltiMate 3000 UHPLC system (Thermo Fisher Scientific, USA) and Thermo Scientific Q Exactive (Thermo Fisher Scientific, USA) fitted with a HESI probe. […]

[11] = tested on: H1975; conditions: read-out: H1975 Cell IC50; cited from earlier work
[12] = observed with AZD9291 treatment; cited from earlier work

Chain of INSR (P06213 28-1382, species assumed): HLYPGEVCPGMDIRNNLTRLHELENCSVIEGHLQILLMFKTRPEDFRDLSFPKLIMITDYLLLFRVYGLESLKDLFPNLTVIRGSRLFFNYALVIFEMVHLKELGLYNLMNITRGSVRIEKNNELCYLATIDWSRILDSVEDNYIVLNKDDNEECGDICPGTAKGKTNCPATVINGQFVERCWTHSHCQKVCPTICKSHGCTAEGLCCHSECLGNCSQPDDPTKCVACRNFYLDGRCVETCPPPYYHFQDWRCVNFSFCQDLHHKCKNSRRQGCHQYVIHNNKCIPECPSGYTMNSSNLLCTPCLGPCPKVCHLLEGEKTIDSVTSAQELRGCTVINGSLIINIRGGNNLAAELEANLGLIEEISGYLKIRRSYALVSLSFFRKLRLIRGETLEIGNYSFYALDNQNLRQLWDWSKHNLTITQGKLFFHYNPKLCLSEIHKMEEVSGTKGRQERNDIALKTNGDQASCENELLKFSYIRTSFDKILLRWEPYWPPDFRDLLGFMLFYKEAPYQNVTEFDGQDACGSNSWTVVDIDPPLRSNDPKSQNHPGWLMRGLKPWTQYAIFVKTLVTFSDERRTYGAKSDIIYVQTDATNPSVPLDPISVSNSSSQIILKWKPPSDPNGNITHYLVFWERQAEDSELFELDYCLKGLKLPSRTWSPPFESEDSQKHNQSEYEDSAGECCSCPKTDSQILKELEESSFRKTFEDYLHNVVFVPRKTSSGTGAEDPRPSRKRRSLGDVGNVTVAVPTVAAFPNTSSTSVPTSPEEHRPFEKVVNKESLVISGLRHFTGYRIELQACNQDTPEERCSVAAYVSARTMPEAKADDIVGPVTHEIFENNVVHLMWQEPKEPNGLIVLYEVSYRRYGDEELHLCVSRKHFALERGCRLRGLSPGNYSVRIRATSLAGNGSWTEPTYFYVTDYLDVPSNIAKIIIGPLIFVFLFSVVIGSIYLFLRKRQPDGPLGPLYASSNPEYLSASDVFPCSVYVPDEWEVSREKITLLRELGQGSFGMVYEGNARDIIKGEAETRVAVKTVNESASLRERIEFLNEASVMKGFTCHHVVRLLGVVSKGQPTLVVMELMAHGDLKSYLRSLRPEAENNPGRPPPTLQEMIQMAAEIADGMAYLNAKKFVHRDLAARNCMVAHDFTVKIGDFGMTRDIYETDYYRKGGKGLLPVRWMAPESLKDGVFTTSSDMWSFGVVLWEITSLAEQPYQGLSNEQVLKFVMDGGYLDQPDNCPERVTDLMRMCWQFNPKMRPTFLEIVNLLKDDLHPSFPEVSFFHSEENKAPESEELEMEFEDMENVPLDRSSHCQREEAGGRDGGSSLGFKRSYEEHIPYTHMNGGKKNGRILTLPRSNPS
Chain of IGF1R (P08069 31-1367, species assumed): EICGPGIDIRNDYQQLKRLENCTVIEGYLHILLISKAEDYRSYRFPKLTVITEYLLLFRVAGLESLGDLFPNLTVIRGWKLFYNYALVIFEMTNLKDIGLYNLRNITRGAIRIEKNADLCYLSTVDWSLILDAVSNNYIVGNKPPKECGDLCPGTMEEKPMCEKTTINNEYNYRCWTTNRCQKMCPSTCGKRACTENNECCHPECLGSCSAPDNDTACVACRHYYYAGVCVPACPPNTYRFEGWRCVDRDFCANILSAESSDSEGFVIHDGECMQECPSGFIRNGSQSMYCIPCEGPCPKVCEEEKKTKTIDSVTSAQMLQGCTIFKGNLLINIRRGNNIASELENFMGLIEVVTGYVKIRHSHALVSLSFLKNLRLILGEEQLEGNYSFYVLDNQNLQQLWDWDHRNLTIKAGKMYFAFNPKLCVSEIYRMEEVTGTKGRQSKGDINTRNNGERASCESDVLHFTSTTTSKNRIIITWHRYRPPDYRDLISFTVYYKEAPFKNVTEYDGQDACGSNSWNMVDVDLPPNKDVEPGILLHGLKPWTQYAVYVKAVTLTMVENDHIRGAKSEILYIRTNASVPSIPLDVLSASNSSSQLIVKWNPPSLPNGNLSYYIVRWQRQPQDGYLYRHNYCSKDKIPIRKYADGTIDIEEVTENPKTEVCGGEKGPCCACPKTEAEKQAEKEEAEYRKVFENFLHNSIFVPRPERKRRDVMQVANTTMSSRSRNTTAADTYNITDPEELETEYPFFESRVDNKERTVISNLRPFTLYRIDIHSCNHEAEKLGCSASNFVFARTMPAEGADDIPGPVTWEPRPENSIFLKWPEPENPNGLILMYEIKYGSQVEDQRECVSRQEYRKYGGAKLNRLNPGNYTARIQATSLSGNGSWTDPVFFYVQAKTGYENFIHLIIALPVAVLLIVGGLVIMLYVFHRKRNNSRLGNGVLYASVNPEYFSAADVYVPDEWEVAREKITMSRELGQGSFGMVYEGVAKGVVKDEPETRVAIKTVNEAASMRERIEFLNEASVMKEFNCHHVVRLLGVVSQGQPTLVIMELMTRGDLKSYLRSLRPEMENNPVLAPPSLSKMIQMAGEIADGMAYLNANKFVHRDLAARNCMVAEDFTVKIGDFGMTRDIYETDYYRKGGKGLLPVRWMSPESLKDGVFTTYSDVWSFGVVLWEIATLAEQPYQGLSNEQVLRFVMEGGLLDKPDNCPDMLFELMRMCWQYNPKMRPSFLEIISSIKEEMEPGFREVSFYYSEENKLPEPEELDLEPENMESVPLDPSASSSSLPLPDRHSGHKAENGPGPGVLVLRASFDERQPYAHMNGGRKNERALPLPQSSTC
Chain of EGFR Wt (P00533 25-1210): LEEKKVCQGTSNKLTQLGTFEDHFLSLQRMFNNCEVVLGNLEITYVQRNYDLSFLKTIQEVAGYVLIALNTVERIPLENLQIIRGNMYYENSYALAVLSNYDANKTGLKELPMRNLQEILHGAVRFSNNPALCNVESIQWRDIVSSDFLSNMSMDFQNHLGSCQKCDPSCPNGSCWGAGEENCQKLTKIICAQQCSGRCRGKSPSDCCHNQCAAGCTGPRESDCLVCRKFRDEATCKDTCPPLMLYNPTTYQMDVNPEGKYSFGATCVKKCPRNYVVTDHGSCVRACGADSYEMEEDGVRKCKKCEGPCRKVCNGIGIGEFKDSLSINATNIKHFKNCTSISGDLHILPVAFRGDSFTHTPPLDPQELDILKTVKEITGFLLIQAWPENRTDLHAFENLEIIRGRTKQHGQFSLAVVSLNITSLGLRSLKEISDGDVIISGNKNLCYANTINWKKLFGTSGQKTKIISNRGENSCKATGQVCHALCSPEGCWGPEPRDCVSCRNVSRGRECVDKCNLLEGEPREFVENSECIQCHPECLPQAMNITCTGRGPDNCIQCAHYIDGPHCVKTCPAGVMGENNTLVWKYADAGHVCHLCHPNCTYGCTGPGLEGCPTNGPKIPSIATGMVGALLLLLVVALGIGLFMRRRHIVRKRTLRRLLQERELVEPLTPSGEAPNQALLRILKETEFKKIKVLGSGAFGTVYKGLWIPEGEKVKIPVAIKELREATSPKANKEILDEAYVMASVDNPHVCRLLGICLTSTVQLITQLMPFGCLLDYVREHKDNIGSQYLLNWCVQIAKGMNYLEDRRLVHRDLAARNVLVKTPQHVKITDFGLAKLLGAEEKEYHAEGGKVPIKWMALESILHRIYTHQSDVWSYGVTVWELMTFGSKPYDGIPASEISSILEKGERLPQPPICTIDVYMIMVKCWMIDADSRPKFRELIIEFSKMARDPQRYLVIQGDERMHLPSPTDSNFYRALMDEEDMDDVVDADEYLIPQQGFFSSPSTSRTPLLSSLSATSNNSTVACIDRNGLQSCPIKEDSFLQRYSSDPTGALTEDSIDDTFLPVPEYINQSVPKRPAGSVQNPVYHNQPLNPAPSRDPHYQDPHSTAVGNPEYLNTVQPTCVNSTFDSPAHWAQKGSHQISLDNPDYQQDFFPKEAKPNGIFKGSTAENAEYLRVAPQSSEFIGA
T1 sequence (P00533 696-1210 T790M/L858R): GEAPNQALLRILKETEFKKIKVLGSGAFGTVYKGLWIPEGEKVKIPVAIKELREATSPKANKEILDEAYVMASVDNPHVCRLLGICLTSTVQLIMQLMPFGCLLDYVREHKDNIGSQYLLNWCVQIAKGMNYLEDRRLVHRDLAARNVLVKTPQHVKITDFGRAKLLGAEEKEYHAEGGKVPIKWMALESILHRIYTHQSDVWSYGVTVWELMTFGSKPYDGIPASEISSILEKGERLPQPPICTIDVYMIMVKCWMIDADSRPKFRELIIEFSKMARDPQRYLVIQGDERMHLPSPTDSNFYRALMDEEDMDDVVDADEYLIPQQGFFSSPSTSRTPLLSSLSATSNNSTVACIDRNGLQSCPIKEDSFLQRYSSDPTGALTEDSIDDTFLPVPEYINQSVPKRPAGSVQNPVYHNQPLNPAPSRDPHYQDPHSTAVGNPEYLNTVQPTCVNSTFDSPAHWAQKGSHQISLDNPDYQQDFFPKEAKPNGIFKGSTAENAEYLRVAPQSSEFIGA

Compound | IC50 [1] [µM] | IC50 [2] [µM] | IC50 [3] [µM] | IC50 [4] [µM] | IC50 [5] [µM] | IC50 [6] [µM] | IC50 [7] [µM] | IC50 [8] [µM] | IC50 [9] [µM] | Metabolite AZ5104, Human [10] | IC50 [11] [µM] | clinical side effect: diarrhea [12] [%] | clinical side effect: rash [12] [%]
C=CC(=O)Nc1cc(Nc2nccc(-c3cn(C45CC(C4)C5)c4ccccc34)n2)c(OC)cc1N(C)CCNC [Example 8, N-(5-((4-(1-(Bicyclo[1.1.1]pentan-1-yl)-1H-indol-3-yl)pyrimidin-2-yl)amino)-4-methoxy-2-(methyl(2-(methylamino)ethyl)amino)phenyl)acrylamide] | ≤ 0.01 | ≤ 0.01 | 0.01 to 0.1 | ≥ 0.1 | ≥ 0.1 | ≤ 0.05 | ≤ 0.05 | ≥ 0.3 | – | – | – | – | –
C=CC(=O)Nc1cc(Nc2nccc(-c3cn(C45CC(F)(C4)C5)c4ccccc34)n2)c(OC)cc1N(C)CCN(C)C [Example 7, N-(2-((2-(dimethylamino)ethyl)(methyl)amino)-5-((4-(1-(3-fluorobicyclo[1.1.1]pentan-1-yl)-1H-indol-3-yl)pyrimidin-2-yl)amino)-4-methoxyphenyl)acrylamide] | ≤ 0.01 | ≤ 0.01 | ≤ 0.01 | – | – | ≤ 0.05 | ≥ 0.3 | ≥ 0.3 | ≤ 0.01 | – | – | – | –
C=CC(=O)Nc1cc(Nc2ncc(C#N)c(-c3cn(C45CC(C4)C5)c4ccccc34)n2)c(OC)cc1N(C)CCN(C)C [Example 3, N-(5-((4-(1-(bicyclo[1.1.1]pentan-1-yl)-1H-indol-3-yl)-5-cyanopyrimidin-2-yl)amino)-2-((2-(dimethylamino)ethyl)(methyl)amino)-4-methoxyphenyl)acrylamide] | ≤ 0.01 | ≤ 0.01 | ≤ 0.01 | ≥ 0.1 | ≥ 0.1 | ≤ 0.05 | ≤ 0.05 | 0.05 to 0.3 | – | – | – | – | –
C=CC(=O)Nc1cc(Nc2nccc(-c3cn(C45CC(C4)C5)c4ccccc34)n2)c(OC)cc1N(C)CCN(C)C [Example 1, N-(5-((4-(1-(bicyclo[1.1.1]pentan-1-yl)-1H-indol-3-yl)pyrimidin-2-yl)amino)-2-((2-(dimethylamino)ethyl)(methyl)amino)-4-methoxyphenyl)acrylamide] | ≤ 0.01 | ≤ 0.01 | ≤ 0.01 | ≥ 0.1 | ≥ 0.1 | ≤ 0.05 | ≤ 0.05 | ≥ 0.3 | ≤ 0.01 | did not lead to the formation | – | – | –
C=CC(=O)Nc1cc(Nc2nccc(-c3nn(C45CC(C4)C5)c4ccccc34)n2)c(OC)cc1N(C)CCN(C)C [Example 5, N-(5-((4-(1-(bicyclo[1.1.1]pentan-1-yl)-1H-indazol-3-yl)pyrimidin-2-yl)amino)-2-((2-(dimethylamino)ethyl)(methyl)amino)-4-methoxyphenyl)acrylamide] | ≤ 0.01 | ≤ 0.01 | ≤ 0.01 | ≥ 0.1 | ≥ 0.1 | ≤ 0.05 | 0.05 to 0.3 | ≥ 0.3 | – | – | – | – | –
C=CC(=O)Nc1cc(Nc2nccc(-c3cn(C)c4ccccc34)n2)c(OC)cc1N(C)CCN(C)C [AZD9291] | – | – | – | – | – | – | – | – | – | Observed | 0.015 | 42 | 41
C=CC(=O)Nc1cc(Nc2nccc(-c3c[nH]c4ccccc34)n2)c(OC)cc1N(C)CCN(C)C [AZ5104] | – | – | – | – | – | – | – | – | – | – | 0.002 | – | –
C=CC(=O)Nc1cc(Nc2nccc(-c3cn(C)c4ccccc34)n2)c(OC)cc1N(C)C12CC(N(C)C)(C1)C2 [Example 6, N-(2-((3-(dimethylamino)bicyclo[1.1.1]pentan-1-yl)(methyl)amino)-4-methoxy-5-((4-(1-methyl-1H-indol-3-yl)pyrimidin-2-yl)amino)phenyl)acrylamide] | ≤ 0.01 | ≥ 0.1 | ≥ 0.1 | ≥ 0.1 | ≥ 0.1 | ≥ 0.3 | ≥ 0.3 | ≥ 0.3 | ≥ 0.1 | – | – | – | –
C=CC(=O)Nc1cc(Nc2nccc(-c3cn(C45CC(C#N)(C4)C5)c4ccccc34)n2)c(OC)cc1N(C)CCN(C)C [Example 2, N-(5-((4-(1-(3-cyanobicyclo[1.1.1]pentan-1-yl)-1H-indol-3-yl)pyrimidin-2-yl)amino)-2-((2-(dimethylamino)ethyl)(methyl)amino)-4-methoxyphenyl)acrylamide] | ≤ 0.01 | ≤ 0.01 | ≤ 0.01 | ≥ 0.1 | ≥ 0.1 | 0.05 to 0.3 | 0.05 to 0.3 | ≥ 0.3 | – | – | – | – | –
C=CC(=O)Nc1cc(Nc2nccc(-c3cn(C)c4ccccc34)n2)c(OC)cc1N(C)C12CC(CN(C)C)(C1)C2 [Example 4, N-(2-((3-((dimethylamino)methyl)bicyclo[1.1.1]pentan-1-yl)(methyl)amino)-4-methoxy-5-((4-(1-methyl-1H-indol-3-yl)pyrimidin-2-yl)amino)phenyl)acrylamide] | ≥ 0.1 | ≥ 0.1 | 0.01 to 0.1 | ≥ 0.1 | ≥ 0.1 | ≥ 0.3 | ≥ 0.3 | ≥ 0.3 | – | – | – | – | –
